Tested on: MCF7 ADR cells
Test: Activity in MDR cells: inhibition of phosphohistone H3 (phH3) in MCF7 ADR cells, with and without UIC2 mAb
Format: cell-based
Protocol: MCF7 ADR cells are known to highly express Pgp and other efflux transporters.
On day 1; 8×10^4 MCF7 ADR cells/ml were plated into a 96 well plate in 100 μl of media (DMEM, 10% FCS, 1% glutamine) and left to adhere at 37° C. overnight.
After 24 hours the cells were examined using the light microscope, and any cellular change in morphology was noted. The cells were then fixed with 100 μl of 3.7% formaldehyde for 30 minutes at room temperature and then washed in PBS using an automated plate washer. 1001 PBS 0.5% triton X-100 was then added for 5 minutes on a shaker. The plate was washed in 100 μl PBS and 50 μl of primary antibody (1:1000 rabbit anti-phosphohistone H3 in PBS 1% BSA 0.5% tween) was added. The plate was left for at least 1 hour at room temperature, on a shaker, after which the antibody was removed and the cells washed twice with PBS. In darkness, 50 μl of secondary antibody (1:10,000 Hoechst and 1:1000 Alexa Fluor 488 anti rabbit in PBS 1% BSA 0.5% tween) was added and the plate left for at least 1 hour at room temperature. The secondary antibody was removed and the plate washed twice with PBS. 200 μl PBS was then added and left for 10 minutes with shaking. The PBS was removed. 100 μl PBS was added and the plate sealed prior to analysis. […]
The plate was analysed on a Cellomics Arrayscan using the Target Activation algorithm. […]

SMILES: CCN(CCCOc1ccc2c(Nc3cc(CC(=O)Nc4cccc(F)c4)[nH]n3)ncnc2c1)CCOP(=O)(O)O [aurora kinase inhibitor, 2-[[3-({4-[(5-{2-[(3-fluorophenyl)amino]-2-oxoethyl}-1H-pyrazol-3-yl)amino]-quinazolin-7-yl}oxy)propyl](ethyl)amino]ethyl dihydrogen phosphate]
- activity of aurora kinase inhibitor alone (inhibition of phH3) (100 nM): inactive
- Pgp mediated efflux of the compound (substrate of Pgp) (efflux inhibited by UIC2 mAb 10 μg/ml): Pgp mediated efflux
